In publication PMC3038857, “Using Nuclear Receptor Activity to Stratify Hepatocarcinogens” (PLoS ONE, 2011):
Read-outs that look alike come from different tables or passages of the source.

Key:
CYP2B6 = assay: CLZD_CYP2B6: Change in expression of CYP2B6 (primary human hepatocytes); type: cell-based; conditions: 24 hr
Method in brief: (§1)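 Cultured primary human hepatocytes treated with chemicals for 6, 24 or 48 hr across five concentrations spanning 0.004-40 µM, then transcript level measured by quantitative nuclease protection in a multiplexed format.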

PXR (NR1I2) [1] = biological target: T1, PXR (NR1I2) (Homo sapiens, UniProt O75469); assay: ATG_PXRE_CIS: Factorial reporter gene assay (HepG2); type: cell-based; set-up: endogenous in cells; host or cells: HepG2; conditions: HepG2
T1 sequence (O75469 1-434): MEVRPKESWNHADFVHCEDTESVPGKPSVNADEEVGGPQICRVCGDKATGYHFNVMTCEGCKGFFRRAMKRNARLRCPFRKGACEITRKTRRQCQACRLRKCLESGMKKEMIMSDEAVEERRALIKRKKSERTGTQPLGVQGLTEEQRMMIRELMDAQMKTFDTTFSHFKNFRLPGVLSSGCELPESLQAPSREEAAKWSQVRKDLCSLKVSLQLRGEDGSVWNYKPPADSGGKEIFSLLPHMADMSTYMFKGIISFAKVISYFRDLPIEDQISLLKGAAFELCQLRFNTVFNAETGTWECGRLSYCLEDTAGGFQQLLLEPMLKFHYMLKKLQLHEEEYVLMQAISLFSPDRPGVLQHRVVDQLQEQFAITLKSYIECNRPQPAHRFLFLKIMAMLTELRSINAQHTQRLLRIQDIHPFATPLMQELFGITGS
Method in brief: (§2)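 Compounds at seven concentrations (top at MTC, threefold serial) were applied to transfected HepG2 hepatoma cells, with PXRE scored by cis-element reporters and ERRg, FXR and PPARg scored by trans one-hybrid nuclear receptor reporters.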

Mouse Liver [2] = conditions: ref ToxRefDB, cited from earlier work
[3] = biological target: T2, ESR1 (estrogen receptor 1) (Homo sapiens, UniProt P03372); assay: ATG_ERa_TRANS: Factorial reporter gene assay (HepG2); type: cell-based; conditions: HepG2
T2 construct: expressed in transfected cells; host or cells: HepG2
T2 sequence (P03372 whole entry): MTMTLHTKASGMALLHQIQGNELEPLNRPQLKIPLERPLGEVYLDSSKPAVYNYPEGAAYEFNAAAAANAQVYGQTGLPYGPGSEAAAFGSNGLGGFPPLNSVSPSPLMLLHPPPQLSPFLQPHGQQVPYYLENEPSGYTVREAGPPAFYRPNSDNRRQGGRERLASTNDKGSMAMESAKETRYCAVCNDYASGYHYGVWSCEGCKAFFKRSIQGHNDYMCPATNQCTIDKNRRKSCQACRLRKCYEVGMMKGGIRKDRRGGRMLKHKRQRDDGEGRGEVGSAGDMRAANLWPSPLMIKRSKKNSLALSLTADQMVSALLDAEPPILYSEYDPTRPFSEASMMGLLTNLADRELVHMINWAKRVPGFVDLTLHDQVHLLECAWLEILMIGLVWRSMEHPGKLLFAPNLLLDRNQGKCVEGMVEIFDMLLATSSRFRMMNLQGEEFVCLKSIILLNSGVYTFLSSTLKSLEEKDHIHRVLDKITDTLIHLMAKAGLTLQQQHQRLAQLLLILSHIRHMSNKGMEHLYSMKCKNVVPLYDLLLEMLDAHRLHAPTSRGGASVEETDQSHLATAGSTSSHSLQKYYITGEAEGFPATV
Method: (§3) A multiple reporter transcription unit (MRTU) library consisting of 48 transcription factor binding sites was transfected into the HepG2 human liver hepatoma cell line. In addition to the cis-acting reporter genes (CIS), a modification of the approach was used to generate a trans-system (TRANS) with a mammalian one-hybrid assay consisting of an additional 25 MRTU library reporting the activity of nuclear receptor super-family members. […] These assays were performed by Attagene Inc. (Morrisville NC) under contract to EPA.
(§4) In addition to the cis-acting reporter genes (CIS), a modification of the approach was used to generate a trans-system (TRANS) with a mammalian one-hybrid assay consisting of an additional 25 MRTU library reporting the activity of nuclear receptor super-family members. […] Chemicals were then tested in the CIS and TRANS assays at seven concentrations starting at the MTC and followed by three-fold serial dilutions. These assays were performed by Attagene Inc. (Morrisville NC) under contract to EPA. Detailed description of the methods, data and analysis methods for this dataset will be presented in a separate publication.

CYP1A2 = assay: CLZD_CYP1A2: Change in expression of CYP1A2 (primary human hepatocytes); type: cell-based; conditions: 24 hr
Method in brief: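 Primary human hepatocyte cultures were exposed to test chemicals at 5 concentrations (0.004-40 µM) for 6, 24 or 48 hr.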

PXR (NR1I2) [4] = biological target: T1, PXR (NR1I2); assay: ATG_PXR_TRANS: Factorial reporter gene assay (HepG2); type: cell-based; set-up: endogenous in cells; host or cells: HepG2; conditions: HepG2
Method in brief: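 Seven concentrations per chemical, three-fold dilutions down from the MTC, were tested in HepG2 hepatoma cells. Those cells carried a multiple reporter transcription unit library, read either as cis transcription-factor-site reporters or as a trans mammalian one-hybrid panel for nuclear receptors.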

Mouse Liver [5] = conditions: ref ToxRefDB, cited from earlier work; remark: listed apart in the source
CYP1A1 = assay: CLZD_CYP1A1: Change in expression of CYP1A1 (primary human hepatocytes); type: cell-based; conditions: 24 hr
Method: This is a collection of multiplexed gene expression assays focused on Phase I and II xenobiotic metabolizing enzymes and transporters. Human primary cell cultures were treated with chemicals at 5 concentrations (0.004-40 [drawing 42] M) for 6, 24 and 48 hr. Concentration- and time-response profiles of chemicals were measured by the expression of key nuclear receptor target genes, activities of CYP1A enzymes (EROD), and cell morphology. Fourteen gene targets were monitored by quantitative nuclease protection assay including: six representative cytochrome P-450 genes, four hepatic transporters, three Phase II conjugating enzymes, and one endogenous metabolism gene involved in cholesterol synthesis. The target genes associated with nuclear receptor pathways are as follows: [drawing 43] and [drawing 44] with [drawing 45]; [drawing 46] , [drawing 47] , [drawing 48] , [drawing 49] , [drawing 50] and [drawing 51] with [drawing 52]; [drawing 53] , [drawing 54] , [drawing 55] and [drawing 56] with [drawing 57]; [drawing 58] with [drawing 59]; and [drawing 60] with [drawing 61] . Assays were run in primary human hepatocyte cultures by CellzDirect Invitrogen Inc. (Durham, NC), in collaboration with EPA.
Multiplexed Gene Expression in Human Primary Hepatocytes: This is a collection of multiplexed gene expression assays focused on Phase I and II metabolic enzymes and transporters. […] Fourteen gene targets were monitored by quantitative nuclease protection assay: six representative cytochrome P450 genes, four hepatic transporters, three Phase II conjugating enzymes, and one endogenous metabolism gene involved in cholesterol synthesis. Cells were exposed at 5 concentrations (0.004-40 µM) for 6, 24 or 48 hr. Gene targets are sentinels for five nuclear receptor signaling pathways: AhR, CAR, PXR, FXR, and PPARα. All gene are associated with nuclear receptor pathways: CYP1A1 and CYP1A2 with AHR; ABCB1, ABCG2, CYP2B6, CYP2C9, CYP2C19 and UGT1A1 with CAR; CYP3A4, GSTA2, SLCO1B1 and SULT2A1 with PXR; HMGCS2 with PPARA; and ABCB11 with FXR. […] Detailed description of the methods, data and analysis methods for this dataset will be presented in a separate publication.

PXR Human (NR1I2) = biological target: T3, PXR Human (NR1I2) (Homo sapiens, UniProt O75469); assay: NCGC_PXR_Agonist_human: GAL4 BLAM Reporter gene assay: PXR Human; type: cell-based; conditions: agonist mode
T3 sequence (O75469 146-434 limits assumed): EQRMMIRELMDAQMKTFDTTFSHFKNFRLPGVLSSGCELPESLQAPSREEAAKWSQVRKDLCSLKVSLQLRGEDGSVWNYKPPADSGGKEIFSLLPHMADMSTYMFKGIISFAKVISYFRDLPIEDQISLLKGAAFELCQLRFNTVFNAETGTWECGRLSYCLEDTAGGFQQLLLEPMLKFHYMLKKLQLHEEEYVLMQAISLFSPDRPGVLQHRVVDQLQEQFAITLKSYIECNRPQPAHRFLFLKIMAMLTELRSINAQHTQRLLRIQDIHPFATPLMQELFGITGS
Method: These assays measure binding constants and enzyme inhibition values for nuclear receptors. The targets include [drawing 67] , [drawing 68] , [drawing 69] , [drawing 70] , [drawing 71] , [drawing 72] , [drawing 73] , [drawing 74] , [drawing 75] and [drawing 76] . Each of the nuclear receptor targets was measured in agonist mode. Assays were run at the NIH Chemical Genomics Center (Rockville, MD).
Cell-based HTS Assays: These assays measuring binding constants and enzyme inhibition values for nuclear receptors. The targets include AR, ER, FXR, LXR, PPARα, PPARδ, PPARγ, RXRα, RXRβ and PXR. Each of the nuclear receptor targets was measured in both agonist and antagonist mode, but the antagonist data is still undergoing analysis due to possible interference between cytotoxicity and assay activity, so antagonist mode data were not used in the present analysis. Assays were run at the NIH Chemical Genomics Center (Rockville, MD) as part of the Tox21 collaboration. […] The R^2 was required to be ≥0.5. Values where only the highest concentration exceeded 50% activity were excluded to eliminate weak or false positives. Detailed description of the methods, data and analysis methods for this dataset will be presented in a separate publication.

CYP3A4 = assay: CLZD_CYP3A4: Change in expression of CYP3A4 (primary human hepatocytes); type: cell-based; conditions: 24 hr
Method in brief: as §1

Rat Liver [6] = conditions: ref ToxRefDB, cited from earlier work
Rat Liver [7] = conditions: ref ToxRefDB, cited from earlier work; remark: listed apart in the source
Rat Liver [8] = conditions: ref ToxRefDB, cited from earlier work; remark: listed apart in the source
[9] = biological target: T4, AHR (aryl hydrocarbon receptor) (Homo sapiens, UniProt P35869); assay: ATG_Ahr_CIS: Factorial reporter gene assay (multiplexed transcription reporter, HepG2); type: cell-based; conditions: HepG2
T4 construct: endogenous in cells; host or cells: HepG2
T4 sequence (P35869 11-848): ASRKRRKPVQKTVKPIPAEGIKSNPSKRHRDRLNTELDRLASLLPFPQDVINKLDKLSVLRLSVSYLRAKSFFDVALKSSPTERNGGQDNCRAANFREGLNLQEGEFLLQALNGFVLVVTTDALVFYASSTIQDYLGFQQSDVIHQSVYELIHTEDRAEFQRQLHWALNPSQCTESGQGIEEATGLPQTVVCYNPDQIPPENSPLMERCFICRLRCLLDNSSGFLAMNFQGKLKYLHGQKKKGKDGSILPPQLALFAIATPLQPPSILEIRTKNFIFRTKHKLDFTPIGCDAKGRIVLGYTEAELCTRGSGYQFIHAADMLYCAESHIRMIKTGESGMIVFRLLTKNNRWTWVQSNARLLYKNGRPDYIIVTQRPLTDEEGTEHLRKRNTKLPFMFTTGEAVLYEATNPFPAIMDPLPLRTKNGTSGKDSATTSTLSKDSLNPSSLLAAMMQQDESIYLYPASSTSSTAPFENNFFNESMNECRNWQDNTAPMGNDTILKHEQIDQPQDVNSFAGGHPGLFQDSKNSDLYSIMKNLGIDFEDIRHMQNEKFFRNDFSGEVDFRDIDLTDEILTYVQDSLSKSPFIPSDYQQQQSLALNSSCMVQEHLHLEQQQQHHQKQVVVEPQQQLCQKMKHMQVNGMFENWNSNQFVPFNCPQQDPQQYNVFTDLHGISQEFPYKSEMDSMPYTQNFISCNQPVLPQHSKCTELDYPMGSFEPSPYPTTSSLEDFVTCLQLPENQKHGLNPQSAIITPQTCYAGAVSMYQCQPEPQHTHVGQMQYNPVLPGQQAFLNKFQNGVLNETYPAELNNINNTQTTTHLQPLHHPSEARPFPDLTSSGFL
Method: as §3, §4

PXR (NR1I2) [10] = biological target: T1, PXR (NR1I2); assay: NVS_NR_hPXR: Human PXR Fluormone PXR (SXR) green (cell-free HTS); type: binding
Method in brief: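 Cell-free biochemical binding assays; chemicals first screened at a single concentration of 25 […] M in duplicate wells. Signals normalised to same-plate solvent controls as percent of neutral control, and AC50 values came from Hill-equation fits of concentration-response curves.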

Mouse Liver [11] = conditions: ref ToxRefDB, cited from earlier work; remark: listed apart in the source
[12] = biological target: T5, PPARG (peroxisome proliferator-activated receptor gamma) (Homo sapiens, UniProt P37231); assay: ATG_PPARg_TRANS: Factorial reporter gene assay (HepG2); type: cell-based; conditions: HepG2
T5 construct: expressed in transfected cells; host or cells: HepG2
T5 sequence (P37231 1-505): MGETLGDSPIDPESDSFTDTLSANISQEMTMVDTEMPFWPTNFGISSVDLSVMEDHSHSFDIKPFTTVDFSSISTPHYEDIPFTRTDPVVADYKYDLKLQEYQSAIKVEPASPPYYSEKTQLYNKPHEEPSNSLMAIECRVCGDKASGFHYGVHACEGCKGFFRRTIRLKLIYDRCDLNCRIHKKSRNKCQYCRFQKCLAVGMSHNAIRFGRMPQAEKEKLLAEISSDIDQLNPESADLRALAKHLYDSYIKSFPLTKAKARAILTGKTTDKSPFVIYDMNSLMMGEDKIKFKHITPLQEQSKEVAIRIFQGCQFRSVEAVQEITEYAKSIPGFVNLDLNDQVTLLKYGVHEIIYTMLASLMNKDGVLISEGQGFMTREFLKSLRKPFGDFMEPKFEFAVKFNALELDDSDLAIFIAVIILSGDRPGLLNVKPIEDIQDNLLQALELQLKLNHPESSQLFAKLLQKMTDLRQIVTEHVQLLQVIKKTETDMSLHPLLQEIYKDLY
Method in brief: as §2

Row | SMILES | CLZD_CYP2B6_24 (CYP2B6) | ATG_PXRE_CIS (PXR (NR1I2) [1]) | CHR_Mouse_Liver_2_PreneoplasticLesion (Mouse Liver [2]; mouse, chronic study) | ATG_ERa_TRANS [3] | CLZD_CYP1A2_24 (CYP1A2) | ATG_PXR_TRANS (PXR (NR1I2) [4]) | CHR_Mouse_Liver_1_AnyLesion (Mouse Liver [5]; mouse, chronic study) | CLZD_CYP1A1_24 (CYP1A1) | CLZD_CYP3A4_24 (CYP3A4) | NVS_NR_hPXR (PXR (NR1I2) [10]) | also measured
1 | CCOc1cc(Oc2ccc(C(F)(F)F)cc2Cl)ccc1[N+](=O)[O-] [r233] | 5.028 | 4.432 | 6 | 5.102 | 5.409 | 4.699 | 6 | 5.52 | 5.072 | – | NCGC_PXR_Agonist_human (PXR Human (NR1I2)): 4.683
2 | CC1(C)C(C=C(Cl)Cl)C1C(=O)OCc1cccc(Oc2ccccc2)c1 (stereo not shown) [r242] | 4.991 | 4.959 | 6 | 4.523 | – | – | 6 | – | 5.668 | 4.444 | CHR_Rat_Liver_1_AnyLesion (Rat Liver [6]; rat, chronic study): 6; CHR_Rat_Liver_3_NeoplasticLesion (Rat Liver [7]; rat, chronic study): 0; CHR_Rat_Liver_2_PreneoplasticLesion (Rat Liver [8]; rat, chronic study): 0; ATG_Ahr_CIS [9]: 4.125; CHR_Mouse_Liver_3_NeoplasticLesion (Mouse Liver [11]; mouse, chronic study): 6
3 | CCCCC(CC)CN1C(=O)C2C3C=CC(C3)C2C1=O (stereo not shown) [row 212] | 5.005 | 5.06 | – | 4.328 | 5.284 | 4.745 | – | 4.883 | 4.752 | 4.582 | CHR_Rat_Liver_1_AnyLesion (Rat Liver [6]; chronic rat study, liver): 6; CHR_Mouse_Liver_2_PreneoplasticLesion (Mouse Liver [2]; chronic mouse study, liver): 6; CHR_Rat_Liver_3_NeoplasticLesion (Rat Liver [7]; chronic rat study, liver): 0; CHR_Rat_Liver_2_PreneoplasticLesion (Rat Liver [8]; chronic rat study, liver): 6; CHR_Mouse_Liver_1_AnyLesion (Mouse Liver [5]; chronic mouse study, liver): 6; ATG_PPARg_TRANS [12]: 4.284; CHR_Mouse_Liver_3_NeoplasticLesion (Mouse Liver [11]; chronic mouse study, liver): 6
